Data published in ChEMBL document CHEMBL1156471, “Targeting host cell furin proprotein convertases as a therapeutic strategy against bacterial toxins and viral pathogens” (J Biol Chem, 2007).
The source made the active and inactive calls. No cut-off for these calls is given here. Non-standard residues stand in square brackets, D forms with d. Residues, ends and D or L forms follow the SMILES beside them. βAla = NCCC(=O)O

Key:
Bacillus anthracis [1] = assay: Protection against Bacillus anthracis Sterne spores infected A/J mouse at 12.5 mg/kg, ip administered once daily for 6 days; type: functional; details: route intraperitoneal
Bacillus anthracis [2] = assay: Protection against Bacillus anthracis Sterne spores infected A/J mouse assessed as survival at 12.5 mg/kg, ip administered once daily for 6 days; type: functional; details: route intraperitoneal
Furin [3] = target: T1, Furin (Homo sapiens, UniProt P09958)
T1 sequence (P09958 whole entry): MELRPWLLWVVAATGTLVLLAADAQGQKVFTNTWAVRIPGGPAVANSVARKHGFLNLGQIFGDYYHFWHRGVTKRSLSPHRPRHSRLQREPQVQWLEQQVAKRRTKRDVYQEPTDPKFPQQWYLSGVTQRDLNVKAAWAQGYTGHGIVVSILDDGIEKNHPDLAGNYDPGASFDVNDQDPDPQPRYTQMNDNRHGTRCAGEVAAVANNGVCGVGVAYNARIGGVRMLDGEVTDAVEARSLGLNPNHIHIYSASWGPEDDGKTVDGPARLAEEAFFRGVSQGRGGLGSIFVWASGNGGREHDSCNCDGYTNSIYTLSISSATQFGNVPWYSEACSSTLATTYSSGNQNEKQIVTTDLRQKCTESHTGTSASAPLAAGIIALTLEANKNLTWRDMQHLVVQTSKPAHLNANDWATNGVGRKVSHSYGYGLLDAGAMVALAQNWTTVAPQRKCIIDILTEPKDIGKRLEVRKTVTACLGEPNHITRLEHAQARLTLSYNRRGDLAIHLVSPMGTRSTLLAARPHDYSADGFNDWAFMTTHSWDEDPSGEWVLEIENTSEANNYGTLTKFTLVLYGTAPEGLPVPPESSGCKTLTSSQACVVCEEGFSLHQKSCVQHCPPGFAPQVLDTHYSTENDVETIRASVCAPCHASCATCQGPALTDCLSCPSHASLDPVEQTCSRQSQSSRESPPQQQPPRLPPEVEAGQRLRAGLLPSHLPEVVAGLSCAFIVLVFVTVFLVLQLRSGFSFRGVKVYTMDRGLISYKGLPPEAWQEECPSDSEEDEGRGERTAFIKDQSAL

[4] = target: T2, Proprotein convertase subtilisin/kexin type 7 (Homo sapiens, UniProt Q16549)
T2 sequence (Q16549 whole entry): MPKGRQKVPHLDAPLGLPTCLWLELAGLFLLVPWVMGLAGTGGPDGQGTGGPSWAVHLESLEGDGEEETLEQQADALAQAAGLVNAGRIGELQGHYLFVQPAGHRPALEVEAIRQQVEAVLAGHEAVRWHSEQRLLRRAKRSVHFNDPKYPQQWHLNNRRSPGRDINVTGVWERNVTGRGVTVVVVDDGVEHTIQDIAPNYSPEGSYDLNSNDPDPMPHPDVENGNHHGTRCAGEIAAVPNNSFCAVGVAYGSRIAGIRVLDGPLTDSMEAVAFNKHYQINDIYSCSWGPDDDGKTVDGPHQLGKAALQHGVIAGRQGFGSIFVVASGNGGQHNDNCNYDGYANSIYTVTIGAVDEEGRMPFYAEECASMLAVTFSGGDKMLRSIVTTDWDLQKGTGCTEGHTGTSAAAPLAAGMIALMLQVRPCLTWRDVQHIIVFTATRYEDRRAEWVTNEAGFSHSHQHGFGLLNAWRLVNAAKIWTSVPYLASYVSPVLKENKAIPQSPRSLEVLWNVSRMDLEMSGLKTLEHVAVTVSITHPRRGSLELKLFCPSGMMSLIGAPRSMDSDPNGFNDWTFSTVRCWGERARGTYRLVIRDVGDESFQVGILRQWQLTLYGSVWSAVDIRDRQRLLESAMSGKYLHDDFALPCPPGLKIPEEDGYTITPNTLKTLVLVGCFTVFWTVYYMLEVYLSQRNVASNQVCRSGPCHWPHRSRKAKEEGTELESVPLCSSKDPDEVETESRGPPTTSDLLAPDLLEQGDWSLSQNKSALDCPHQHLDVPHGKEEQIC

[5] = target: Proprotein convertase subtilisin/kexin type 5 (Homo sapiens, UniProt Q92824)
Chain of Proprotein convertase subtilisin/kexin type 5 (Q92824 whole entry): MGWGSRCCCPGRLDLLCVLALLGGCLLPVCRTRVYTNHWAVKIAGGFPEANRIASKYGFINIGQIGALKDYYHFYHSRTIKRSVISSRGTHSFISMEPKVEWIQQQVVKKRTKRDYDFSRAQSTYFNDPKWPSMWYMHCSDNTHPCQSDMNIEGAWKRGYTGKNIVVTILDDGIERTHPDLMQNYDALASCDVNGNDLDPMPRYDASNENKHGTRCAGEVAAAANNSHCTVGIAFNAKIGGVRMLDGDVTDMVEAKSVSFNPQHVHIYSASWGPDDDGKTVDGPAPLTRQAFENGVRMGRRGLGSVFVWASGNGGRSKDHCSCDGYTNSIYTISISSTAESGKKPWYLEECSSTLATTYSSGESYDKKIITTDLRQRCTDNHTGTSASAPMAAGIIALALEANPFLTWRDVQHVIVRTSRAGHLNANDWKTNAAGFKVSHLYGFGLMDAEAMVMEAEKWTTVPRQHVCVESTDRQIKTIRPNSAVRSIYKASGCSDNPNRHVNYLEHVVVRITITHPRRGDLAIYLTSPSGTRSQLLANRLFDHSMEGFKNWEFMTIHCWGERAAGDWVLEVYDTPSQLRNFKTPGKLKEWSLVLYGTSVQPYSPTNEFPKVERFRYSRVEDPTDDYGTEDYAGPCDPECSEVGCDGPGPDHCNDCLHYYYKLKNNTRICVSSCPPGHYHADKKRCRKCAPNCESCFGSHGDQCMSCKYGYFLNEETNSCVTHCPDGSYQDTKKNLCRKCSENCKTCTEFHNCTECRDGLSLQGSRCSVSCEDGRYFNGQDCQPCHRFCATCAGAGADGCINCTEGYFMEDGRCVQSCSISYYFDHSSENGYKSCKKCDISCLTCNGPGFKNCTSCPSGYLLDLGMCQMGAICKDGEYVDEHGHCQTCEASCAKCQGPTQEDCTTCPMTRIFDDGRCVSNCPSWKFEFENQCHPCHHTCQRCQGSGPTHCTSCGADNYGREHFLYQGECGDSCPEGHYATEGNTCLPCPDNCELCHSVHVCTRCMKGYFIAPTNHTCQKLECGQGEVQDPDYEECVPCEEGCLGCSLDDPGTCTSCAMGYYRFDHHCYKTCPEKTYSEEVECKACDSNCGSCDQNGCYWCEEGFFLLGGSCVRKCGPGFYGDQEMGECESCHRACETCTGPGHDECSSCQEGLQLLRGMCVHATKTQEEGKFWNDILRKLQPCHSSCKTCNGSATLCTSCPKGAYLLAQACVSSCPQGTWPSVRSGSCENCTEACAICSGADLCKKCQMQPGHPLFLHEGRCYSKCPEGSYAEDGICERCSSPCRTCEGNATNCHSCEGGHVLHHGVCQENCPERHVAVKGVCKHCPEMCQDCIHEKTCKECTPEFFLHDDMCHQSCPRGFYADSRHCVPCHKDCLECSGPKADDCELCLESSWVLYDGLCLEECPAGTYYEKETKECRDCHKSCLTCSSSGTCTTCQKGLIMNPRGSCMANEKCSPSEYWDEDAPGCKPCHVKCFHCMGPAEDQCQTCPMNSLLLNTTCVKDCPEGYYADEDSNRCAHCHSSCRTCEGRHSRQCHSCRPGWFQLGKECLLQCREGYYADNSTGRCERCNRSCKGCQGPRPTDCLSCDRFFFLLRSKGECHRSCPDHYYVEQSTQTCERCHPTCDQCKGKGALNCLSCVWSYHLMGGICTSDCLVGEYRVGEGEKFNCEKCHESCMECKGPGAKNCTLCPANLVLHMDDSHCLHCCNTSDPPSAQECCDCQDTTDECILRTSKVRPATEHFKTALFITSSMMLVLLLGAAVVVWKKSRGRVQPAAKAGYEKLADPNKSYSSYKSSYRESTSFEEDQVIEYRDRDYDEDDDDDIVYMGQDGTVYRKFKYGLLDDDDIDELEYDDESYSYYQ

[6] = target: T3, Proprotein convertase subtilisin/kexin type 6 (Rattus norvegicus, UniProt Q63415)
T3 sequence (Q63415 whole entry): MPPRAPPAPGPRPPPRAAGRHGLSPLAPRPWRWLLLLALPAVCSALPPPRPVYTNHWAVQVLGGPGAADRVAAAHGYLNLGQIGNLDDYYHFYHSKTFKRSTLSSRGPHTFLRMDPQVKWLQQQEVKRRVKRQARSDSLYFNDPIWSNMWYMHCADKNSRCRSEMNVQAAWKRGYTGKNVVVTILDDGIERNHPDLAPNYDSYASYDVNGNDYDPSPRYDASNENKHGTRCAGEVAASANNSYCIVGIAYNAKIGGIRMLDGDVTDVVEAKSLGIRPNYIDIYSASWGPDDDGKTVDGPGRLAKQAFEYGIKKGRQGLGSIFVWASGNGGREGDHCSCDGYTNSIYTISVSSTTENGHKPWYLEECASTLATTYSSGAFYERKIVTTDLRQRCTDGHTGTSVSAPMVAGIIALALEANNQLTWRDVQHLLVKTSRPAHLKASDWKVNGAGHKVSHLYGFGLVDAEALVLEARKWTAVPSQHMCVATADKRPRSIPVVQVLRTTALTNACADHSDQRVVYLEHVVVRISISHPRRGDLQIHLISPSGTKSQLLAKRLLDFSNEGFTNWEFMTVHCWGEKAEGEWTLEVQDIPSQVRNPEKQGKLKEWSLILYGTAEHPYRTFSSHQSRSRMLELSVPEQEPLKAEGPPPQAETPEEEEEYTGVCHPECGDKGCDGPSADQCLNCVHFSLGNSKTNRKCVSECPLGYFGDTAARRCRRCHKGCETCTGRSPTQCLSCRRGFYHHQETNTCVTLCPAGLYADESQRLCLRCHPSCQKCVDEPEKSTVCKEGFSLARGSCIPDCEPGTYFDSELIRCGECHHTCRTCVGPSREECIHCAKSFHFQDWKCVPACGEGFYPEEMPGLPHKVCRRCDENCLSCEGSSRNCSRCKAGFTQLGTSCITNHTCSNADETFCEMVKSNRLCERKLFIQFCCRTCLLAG

[7] = target: T4, Proprotein convertase subtilisin/kexin type 4 (Homo sapiens, UniProt Q6UW60)
T4 sequence (Q6UW60 whole entry): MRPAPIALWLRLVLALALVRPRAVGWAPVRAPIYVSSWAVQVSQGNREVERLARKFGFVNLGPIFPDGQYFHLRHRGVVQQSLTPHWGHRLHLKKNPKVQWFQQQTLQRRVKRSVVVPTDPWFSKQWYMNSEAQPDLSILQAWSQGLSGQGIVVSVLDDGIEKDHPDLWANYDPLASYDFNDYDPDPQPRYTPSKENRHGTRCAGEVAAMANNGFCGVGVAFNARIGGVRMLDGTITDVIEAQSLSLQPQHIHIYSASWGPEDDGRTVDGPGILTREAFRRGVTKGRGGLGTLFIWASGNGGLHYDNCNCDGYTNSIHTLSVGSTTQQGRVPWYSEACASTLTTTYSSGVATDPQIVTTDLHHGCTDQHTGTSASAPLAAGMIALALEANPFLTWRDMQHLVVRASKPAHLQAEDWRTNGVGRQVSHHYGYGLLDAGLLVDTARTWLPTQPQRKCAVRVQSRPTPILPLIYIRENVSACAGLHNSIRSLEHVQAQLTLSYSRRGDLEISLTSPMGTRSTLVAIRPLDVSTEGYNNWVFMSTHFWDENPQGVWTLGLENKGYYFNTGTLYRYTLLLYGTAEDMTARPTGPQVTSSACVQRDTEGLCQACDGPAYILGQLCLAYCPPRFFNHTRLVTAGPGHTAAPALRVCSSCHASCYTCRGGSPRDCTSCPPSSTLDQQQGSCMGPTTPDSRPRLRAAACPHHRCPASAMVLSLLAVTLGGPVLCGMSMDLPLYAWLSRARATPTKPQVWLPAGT

Bacillus anthracis [8] = assay: Protection against Bacillus anthracis Sterne spores infected A/J mouse assessed as survival at 25 mg/kg, sc administered daily after 4 days post infection; type: functional; details: route subcutaneous
U-251 [9] = assay: Protection against anthrax PA63-lethal toxin complex-induced cytotoxicity in human U251 cells at 20 uM at 400 ng/ml by MTT test; type: cell-based
Furin [10] = target: T1, Furin; assay: Inhibition of furin-mediated Pseudomonas exotoxin A proteolysis by peptide cleavage reaction
U-251 [11] = assay: Inhibition of proprotein convertase-dependent delivery of PA63-lethal toxin complex into cytosol in human U251 cells at 20 uM; type: cell-based; details: Bacillus anthracis
RAW264.7 = assay: Cytotoxicity against mouse RAW264.7 cells =< 0.5 mM after 4 hrs by MTT assay; type: cell-based; details: raw264.7, 4 h
Mus musculus = assay: Protection against Pseudomonas exotoxin A-induced toxicity in C57BL/6 mouse assessed as survival at 12.5 mg/kg, ip once daily administered 1 hr prior to toxin challenge; type: functional; details: C57BL/6, ip, route intraperitoneal
U-251 [12] = assay: Inhibition of proprotein convertase-mediated anthrax protective antigen-83 processing in human U251 cells at 20 uM by Western blot; type: cell-based; details: Bacillus anthracis

Compound	Ki (Furin [3]) [nM]	Ki [4] [nM]	Ki [5] [nM]	Ki [6] [nM]	Ki [7] [nM]	also measured
C[C@H](NC(=O)[C@H](CCCNC(=N)N)NC(=O)[C@@H]1CCCN1C(=O)[C@@H](NC(=O)CCN)[C@@H](C)O)C(=O)N[C@@H](CCCNC(=N)N)C(=O)N[C@@H](CCCNC(=N)N)C(=O)N[C@@H](CCCNC(=N)N)C(=O)N[C@@H](CCCCN)C(=O)N[C@@H](CCCCN)C(=O)N[C@@H](CCCNC(=N)N)C(=O)N[C@H](C(N)=O)[C@@H](C)O (H-[βAla]TPRARRRKKRT-NH2)	–	–	–	–	–	Activity (Bacillus anthracis [1]): 40%; Survival (Bacillus anthracis [2]): 6.63 days
H-TPQRARRRKKRF-OH	38	1130	806	602	772	–
O=C(O)c1cn(C2CC2)c2cc(N3CCNCC3)c(F)cc2c1=O [CIPROFLOXACIN]	–	–	–	–	–	Survival (Bacillus anthracis [8]): 6 days
H-TPQRARRRKKRT-OH	33	206	188	296	515	–
H-TPQRARRRKKRY-OH	47	1220	649	1020	624	–
H-TPRARRRKKRI-NH2	30	135	492	267	562	–
H-TPQRARRRKKRW-OH	34	172	433	192	952	–
CNC(=O)[C@H](Cc1c[nH]c2ccccc12)NC(=O)[C@@H](CC(=O)NO)CC(C)C	–	–	–	–	–	Activity (U-251 [9]): Active
H-TPRARRRKKRT-NH2	–	135	232	162	441	Activity (Furin [10]): Active; Activity (U-251 [9]): Active; Activity (U-251 [11]): Active; Activity (RAW264.7): Non-toxic; survival at 12.5 mg/kg (Mus musculus): 60%; Activity (U-251 [12]): Active
